How the values were obtained:
[1] = system: breast cancer cell lines (high-ADCK3 vs low-ADCK3); test: Breast cancer cell line panel viability with ferroptosis inducers (CellTiter-Glo); format: cell-based; settings: 2-fold dilution series, 72 hours
Experimental: Breast cancer cell lines were treated with ferroptosis inducers FIN56 (FIG. 2D) or RSL3 (FIG. 2E) in 2-fold dilution series for 72 hours. Cell viability was measured with CellTiter-Glo®. Ferroptosis-sensitive breast cancer cells are categorized as ‘high-ADCK3’ expressing (orange), while cells that are less sensitive to ferroptosis induction were the ones with ‘low-ADCK3’ (green).
A panel of 10 breast cancer cell lines was selected form the Broad Institute Cancer Cell Line Encyclopedia database (CCLE; https://portals.broadinsitute.org/ccle),based on their ADCK3 copy number and mRNA expression levels, to have a good representation of ADCK3-amplified cells (termed here as ‘high-ADCK3’), as well as a control group expressing normal levels of ADCK3 (termed here as ‘low-ADCK3’; FIG. 2A). To confirm a correlation between high ADCK3 gene/transcript expression and protein expression, ADCK3 levels were measured by western blot (FIG. 2B). Cells were divided into high-ADCK3 (orange in FIGS. 2A-2E) and low-ADCK3 (green in FIGS. 2A-2E) according to the protein expression level. […] High ADCK3 protein levels correlated with high CoQ10 abundance, measured by LC-MS (FIG. 2C). […]

[2] = system: SKBR3 cells overexpressing ADCK3-FLAG; test: Ferroptosis induction in SKBR3 cells overexpressing ADCK3-FLAG (CellTiter-Glo); format: cell-based; settings: RSL3 10 or 20 nM, FIN56 78 or 156 nM, 48 h
Experimental: Viability was measured with CellTiter-Glo®.
ADCK3-FLAG was stably overexpressed in SKBR3 cells through retroviral infection. First, proper localization of the overexpressed protein to the mitochondria was validated by fluorescent microscopy. Similarly to the localization pattern of endogenous ADCK3 to the mitochondria, overexpressed ADCK3-FLAG co-localized with a MitoTracker fluorescent probe (FIG. 5A).

[3] = system: ADCK3 knockdown/knockout SKBR3 cells; test: Ferroptosis induction in ADCK3 knockdown/knockout SKBR3 cells (CellTiter-Glo); format: cell-based; settings: for rescue of RSL3-induced death in siRNA ADCK3 knockdown cells: SKBR3, siRNA ADCK3, RSL3 48 h
Experimental: At 48 h after transfection, cells were treated with RSL3 in 2-fold dilution series for 48 h, in combination with ferrostatin-1 or idebenone. Viability was measured with CellTiter-Glo®. […] Stable CRISPR cells were treated with FIN56 in 2-fold dilution series in combination with ferrostatin-1, for 48 h. Viability was measured with CellTiter-Glo®. […] (grey) cells were treated with RSL3 or FIN56 in 2-fold dilution series in combination with 2 μM ferrostatin-1 for 48 h. Viability was measured with CellTiter-Glo®.

[4] = system: ADCK3; test: Western blot of ADCK3 protein levels in SKBR3 cells; format: cell-based; settings: SKBR3, 50 nM SGC-GAK-1, 48 hours
Experimental: SKBR3 cells were treated with 50 nM SGC-GAK-1 or vehicle, for 48 h, and analyzed by western blot for ADCK3 and GAPDH levels.
(§1) Thus, it was concluded that SGC-GAK-1 induces ferroptosis in ADCK3-amplified cells, perhaps by reducing the levels of ADCK3 and CoQ10.

[5] = system: SKBR3 cells; test: SKBR3 cell death / viability on SGC-GAK-1 treatment; format: cell-based
From the text: as §1

[6] = system: SKBR3 cells; test: Cellular lipid-ROS by C11-BODIPY flow cytometry; format: cell-based
From the text: as §1

[7] = system: CoQ10; test: CoQ10 abundance in SKBR3 cells by LC/MS; format: cell-based; settings: SKBR3, 50 nM SGC-GAK-1, 48 hours
From the text: CoQ10 abundance in SKBR3 cells treated as in FIG. 6A, measured by LC/MS.
as §1

[8] = biological target: ADCK3 (Homo sapiens, UniProt Q8NI60); settings: reported, Asquith et al. 2019; cited from earlier work
[9] = system: triple-negative breast cancer; settings: cited from earlier work

ADCK3 (Homo sapiens, UniProt Q8NI60), sequence (Q8NI60 163-647): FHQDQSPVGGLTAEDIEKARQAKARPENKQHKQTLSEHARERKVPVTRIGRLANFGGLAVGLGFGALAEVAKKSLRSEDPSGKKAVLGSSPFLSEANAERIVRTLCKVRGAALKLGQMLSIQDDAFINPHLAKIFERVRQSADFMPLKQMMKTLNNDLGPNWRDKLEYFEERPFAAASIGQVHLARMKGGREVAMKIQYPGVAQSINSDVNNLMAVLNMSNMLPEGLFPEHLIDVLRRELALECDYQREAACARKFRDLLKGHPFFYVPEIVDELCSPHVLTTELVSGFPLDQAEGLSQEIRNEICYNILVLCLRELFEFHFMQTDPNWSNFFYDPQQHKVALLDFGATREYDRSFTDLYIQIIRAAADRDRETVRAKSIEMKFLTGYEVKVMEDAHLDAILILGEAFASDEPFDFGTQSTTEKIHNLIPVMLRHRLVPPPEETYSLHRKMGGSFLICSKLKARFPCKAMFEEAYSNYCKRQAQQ

Molecule: O=S(=O)(NC1CCCCC1)c1ccc2c(c1)C(=NO)c1cc(S(=O)(=O)NC3CCCCC3)ccc1-2 [FIN56]
- sensitivity to ferroptosis induction of cells with amplified ADCK3 expression [1]: distinct higher sensitivity
- cytotoxic effect in cells overexpressing ADCK3 compared to control [2]: statistically significant reduction in cytotoxic effect

Molecule: COC(=O)c1ccc([C@@H]2c3[nH]c4ccccc4c3C[C@@H](C(=O)OC)N2C(=O)CCl)cc1 [RSL3]
- sensitivity to ferroptosis induction of cells with amplified ADCK3 expression [1]: distinct higher sensitivity
- cytotoxic effect in cells overexpressing ADCK3 compared to control [2]: statistically significant reduction in cytotoxic effect
- sensitivity of siRNA ADCK3 knockdown cells to ferroptosis inducer ([3]; SKBR3, siRNA ADCK3 vs non-targeting control, 48 h treatment): increased the sensitivity

Molecule: COc1cc(Nc2ccnc3ccc(Br)cc23)cc(OC)c1OC [SGC-GAK-1]
- ADCK3 protein levels [4]: marked reduction in ADCK3 protein levels
- sensitivity of SKBR3 cells to RSL3-mediated ferroptotic death ([5]; SGC-GAK-1 combined with RSL3): further potentiated SKBR3 cells to RSL3-mediated ferroptotic death
- cell death induced by SGC-GAK-1 alone ([5]; SKBR3 cells, with or without ferrostatin-1): induced cell death that was rescued by the ferroptosis inhibitor ferrostatin-1
- lipid-ROS ([6]; SKBR3, 50 nM SGC-GAK-1, 48 h, C11-BODIPY): increase in lipid-ROS
- CoQ10 levels [7]: reduced CoQ10 levels
- inhibitory activity against ADCK3 [8]: nanomolar inhibitory activity

Molecule: CCOC(=O)c1ccc(NC2CCCCC2)c(N)c1 [ferrostatin-1]
- rescue of SGC-GAK-1-induced ferroptotic death ([5]; SKBR3, 1 µM ferrostatin-1): rescued
- rescue of SGC-GAK-1-induced increase in cellular lipid-ROS ([6]; SKBR3, 2 µM ferrostatin-1): rescued
- rescue of death and sensitization in CRISPR/shRNA ADCK3 knockout cells ([3]; SKBR3, RSL3 or FIN56 with ferrostatin-1 (2 µM in shRNA cells)): rescued
- rescue of RSL3-induced death in siRNA ADCK3 knockdown cells [3]: rescued

Molecule: COC1=C(OC)C(=O)C(CCCCCCCCCCO)=C(C)C1=O [idebenone]
- rescue of RSL3-induced death in siRNA ADCK3 knockdown cells [3]: rescued

Molecule: Tecentriq: approved in combination with protein-bound paclitaxel for unresectable triple-negative breast cancer whose tumors express PD-L1
- patients who experienced adverse reactions ([9]; in vivo): greater than 20%
- median progression-free survival ([9]; with protein-bound paclitaxel, PD-L1 expressing unresectable triple-negative breast cancer): 7.4 months
- extension of median progression-free survival ([9]; with protein-bound paclitaxel, from 4.8 to 7.4): 2.6 months

— US20230035422A1, “METHODS FOR TREATING DISEASES BY TARGETING ONCOGENIC LIPIDS” (THE TRUSTEES OF COLUMBIA UNIVERSITY IN THE CITY OF NEW YORK, priority 2020, published 2023)
